Here are results for 1 substance from US20180051284A1, “INHIBITORS OF MIR-17-92 CLUSTER FOR ANTI-TUMOR ACTIVITY IN MULTIPLE MYELOMA AND OTHER MALIGNANCIES” (priority 2014, published 2018).

One data set concerns AMO1 xenografts. The data set can be described thus: In vivo tumor growth of AMO1 xenografts (IVIS). Set-up: species or system mice. Conditions: I.P. 2 mg/kg at day 1-4-8-15-22. An excerpt:
Male CB-17 severe combined immunodeficient (SCID) mice (6- to 8-weeks old; Harlan Laboratories, Inc., Indianapolis) were housed and monitored in our Animal Research Facility. All experimental procedures and protocols had been approved by the Institutional Ethical Committee (Magna Graecia University) and conducted according to protocols approved by the National Directorate of Veterinary Services (Italy). In accordance with institutional guidelines, mice were sacrificed when tumors reached 2 cm in diameter or in the event of paralysis or major compromise, to prevent unnecessary suffering. Animal experimental procedures have been performed as in previous reports (Di Martino et al, CCR 2012; Di Martino el al. Oncotarget 2013, Di Martino et al PlosOne 2014). […] Mice were also inoculated with 5×10^6 luciferase gene-marked U266, AMO-1, AMO-1/abzb, treatments were performed intraperitoneally (i.p.), and tumor volume were measured by IVIS Lumina II.
In vivo anti-MM activity of LNA gapmer_06 was next evaluated in NOD/SCID mice bearing subcutaneous AMO1 xenografts. […] Tumors volume were measured using IVIS LUMINA II Imaging We next evaluate the in vivo activity in Bortezomib-refractory model of human MM. […] Tumors volume were measured using IVIS LUMINA II Imaging System.

Another data set deals with MM cell lines. The data set can be described thus: CCK-8 cell growth analysis after gymnotic exposure. The format is cell-based, Human. Conditions: six days gymnotic exposure, 100 nM to 20 μM; ten MM cell lines; units printed inside the value (nM lower, μM upper); read-out: IC50 values by CCK-8 assay, range over MM cell lines. The protocol:
(§1) Cells were seeded at low plating density in order to reach confluence on the final day of the experiments (day 6). Cell number at plating ranged from 0.5 to 2.5×10^3 in 96-well plates, from 2.5 to 10×10^3 in 12-well plates and from 1 to 3×10^4 in 6-well plates.
(§2) The LNA/DNA Gapmers were used at concentrations ranging from 0.1 to 20 μM.
Cells were seeded in 100 μL (suspension cell lines) or 50 μL (adherent cell lines) of culture medium at a density ranging from 0,5 to 2,5×10^3 cells per well. Survival was evaluated by both Cell Counting Kit-8 colorimetric assay (CCK-8, Dojindo Molecular Technologies, Japan) and CellTiter-Glo Luminescent Cell Viability Assay (Promega Madison, Wis., USA). Assays were performed according to the manufacturer's instructions. The optical density (OD) was evaluated at wave length of 450 nm. Both OD and luminescence were recorded with the GloMax-multi detection system (Promega, Madison, Wis., USA).

In data set [1] the test system is miR-17-92 primary transcripts and mature miRNA family members. Put plainly: q-RT-PCR after transfectant reagents-free (gymnotic) exposure. The settings on record: six days gymnotic exposure, 1 and 2,5 μM; two MM cell lines (NCI-H929); vs saline vehicle. The format is cell-based, Human. How it is done:
as §1, §2
Reverse transcription (RT) of both primary and mature miRNAs was performed using TaqMan® MicroRNA Assays, following a procedure for multiplexing the RT step (Life Technologies, Publication Part Number 4465407). Briefly, 500 ng of total RNA, prepared with the TRIzol® Reagent (Invitrogen), underwent reverse transcription by the Taq-Man® MicroRNA RT Kit. In this reaction, the RT primer pool was composed by the individual RT primers for each microRNA belonging to the miR-17-92 cluster and two RT primers to allow the reverse transcription of the miR-17-92 primary miRNA. Real-time PCR was performed using TaqMan® MicroRNA Assays together with the TaqMan® Universal PCR Master Mix on an ViiA7 System (Life Technologies). Both primary and mature microRNAs expressions were relatively quantified using the 2-ΔΔCt method (Applied Biosystems User Bulletin No. 2), and expressed as the relative quantity of target miRNA normalized to the RNU44 (assay ID 001094) housekeeping gene. […] Relative expression was calculated using the comparative cross threshold (Ct) method.

The test system of data set [2] is miR-17-92 primary transcript (pri-miRs) and mature miR-17-92 cluster members. Put plainly: q-RT-PCR of miR-17-92 member family and two pri-miRs after transfection of MM cells. The format is cell-based, Human. Conditions: 48 hours after transfection with 25 nM. The protocol: 3×10^5 cells were transfected using Neon Transfection System (Invitrogen, Calif.,U.S.), (2 pulses at 1150, 30ms). The transfection efficiency evaluated by flow-cytometric analysis relative to a FAM dye—labeled anti-miR—negative control reached 85% to 90%.
Reverse transcription (RT) of both primary and mature miRNAs was performed using TaqMan® MicroRNA Assays, following a procedure for multiplexing the RT step (Life Technologies, Publication Part Number 4465407). Briefly, 500 ng of total RNA, prepared with the TRIzol® Reagent (Invitrogen), underwent reverse transcription by the Taq-Man® MicroRNA RT Kit. In this reaction, the RT primer pool was composed by the individual RT primers for each microRNA belonging to the miR-17-92 cluster and two RT primers to allow the reverse transcription of the miR-17-92 primary miRNA. Real-time PCR was performed using TaqMan® MicroRNA Assays together with the TaqMan® Universal PCR Master Mix on an ViiA7 System (Life Technologies). Both primary and mature microRNAs expressions were relatively quantified using the 2-ΔΔCt method (Applied Biosystems User Bulletin No. 2), and expressed as the relative quantity of target miRNA normalized to the RNU44 (assay ID 001094) housekeeping gene. Comparative real-time polymerase chain reaction (RT-PCR) was performed in triplicate, including no-template controls. Relative expression was calculated using the comparative cross threshold (Ct) method.
By the use of a custom q-RT-PCR plate specifically designed by us to detect all six mature miR-17-92 members and the primary transcript by two different assays (pri-mir-17/18a/19a and pri-mir-19b1/20a/92a1), we quantified in a panel of 11 MM cell lines the levels of the different miRNAs and pri-miRs.

l = locked nucleic acid (LNA); d = 2'-deoxy (DNA)

With “gapmer_06: LNA/DNA gapmer, SEQ ID 4 (14 mer): +T*+A*+C*T*T*G*C*T*T*G*G*+C*+T*+T; + LNA, * phosphorothioate (antisense TACTTGCTTGGCTT; sugars from the 5' end l3 d8 l3, all phosphorothioate, methylation of C not given here)”, the “tumor-growth inhibition relative to Bortezomib 1 mg/kg” value in the data set with AMO1 xenografts is “almost comparable to Bortezomib effect”. The “tumor growth (IVIS tumor volume)” value with AMO1 xenografts (vs NaCl control) was “significant tumor-growth inhibition”. Also, in the data set with MM cell lines, the IC50 – broadly, the midpoint of a concentration-inhibition curve – was 500 to 8000 nM. For the same substance, the “downregulation of primary transcript and mature single miRNAs (q-RT-PCR)” value in data set [1] was “downregulation of primary transcript as well as mature single miRNAs, in a dose dependent manner”. Further, the “downregulation of primary and mature miRNA sequences (q-RT-PCR)” value in data set [2] (NCI-H929 and RPMI-8226 cells, relative to RNase-free water) is “more effective gapmer to downregulate both primary and mature miRNA sequences”. For the same substance, in data set [2] (NCI-H929 cells, vs RNase-free water), the “downregulation of pri-miRs and miR-17-92 cluster members (q-RT-PCR)” value is “induce downregulation of the two primary transcript and mature single miRNA members”.
